# According to patent US9618507B2, “Methods of treating rheumatoid arthritis” (Betanien Hospital, priority 2014, dated 2017):
# Read-outs that look alike come from different tables or passages of the source. Marks after values point to notes of the source that are not given here. Where a SMILES comes first, the peptide text is derived from it. [ ]: non-standard residue; d: D form. dPhe(4-Cl) = N[C@H](Cc1ccc(Cl)cc1)C(=O)O; d2Nal = N[C@H](Cc1ccc2ccccc2c1)C(=O)O; dCit = NC(=O)NCCC[C@@H](N)C(=O)O; d3Pal = N[C@H](Cc1cccnc1)C(=O)O
# Tests used:
# [1] = test system: gonadotropins, oestradiol, testosterone, cortisol; experiment: Example 2: hormones (gonadotropins, oestradiol, testosterone, cortisol) in high gonadotropin patients; type: in vivo, human
# Text: Non-competitive immunofluorometric assays were used for the quantitative determination of serum LH and FSH (Dissociation Enhanced Lanthanide Fluoroimmunoassay [DELFIA] kit, Turku, Finland). A competitive immunofluorometric assay was used for the determination of serum oestradiol (DELFIA kit, Turku, Finland). A competitive radioimmunoassay was used for the quantitative determination of serum testosterone (Orion Diagnostica. Espoo, Finland). A competitive Iuminoimmunoassay was used for the quantitative determination of serum cortisol (Immulite 2000, California, USA).
# [2] = test system: RA patients; experiment: Example 1: adverse events; type: in vivo, human
# Experimental: (§1) Ethical committee approval was obtained. […] Safety and efficacy visits, with blood sampling, were between 0730 and 0930 h on days 1 (baseline), 2, 3, 4, 5 (visit 5a), 10, and 15. There was an additional visit (visit 5b) between 1930 and 2130 h when maximum GnRH suppression was anticipated.
# Predefined secondary end-points included the baseline adjusted between-group difference inTNF-α, ACR20/50/70 responses, European League Against Rheumatism (EULAR) responses, DAS28-CRP <2.6 and ≦3.2, and adverse events.
# The Newcombe hybrid score interval was used to estimate 95% confidence intervals (CI) for the difference between proportions (Fagerland M W, et al., Stat Methods Med Res 2011). No adjustments for multiple analyses were made, owing to the highly correlated variables. All clinical, biochemical, and safety data were analyzed by an intention-to-treat analysis. Only predefined endpoints are presented. The intention-to-treat population was predefined in the protocol as all randomized patients who received any injections of study drug. Missing values were <1% and could, as predefined, be imputed with the last observation carried forward. The assumptions of normality needed for analyses were approximately valid. The Spearman rank correlation coefficient (Spearman's rho) was used to estimate the association between pairs of continuous variables.
# [3] = test system: CRP, ESR; conditions: all patients
# Experimental: Ethical committee approval was obtained. A blinded independent committee, the Oslo University Hospital Data Monitoring Committee, regularly reviewed source documents against case record forms. Safety and efficacy visits, with blood sampling, were between 0730 and 0930 h on days 1 (baseline), 2, 3, 4, 5 (visit 5a), 10, and 15. There was an additional visit (visit 5b) between 1930 and 2130 h when maximum GnRH suppression was anticipated. Using computer-generated allocation, patients were randomly assigned 1:1 to cetrorelix (5 mg/day s.c. on days 1 and 2, 3 mg/day on days 3-5) or corresponding volumes of placebo. The cetrorelix doses were chosen to achieve rapid reductions in GnRH, LH, a surrogate marker for GnRH, and FSH. TNF-α was measured using multiplex technology with a high sensitivity (0.5 pg/mL) assay.
# The predefined primary end-point was the baseline adjusted between-group difference in DAS28-CRP by visit 5b. Predefined secondary end-points included the baseline adjusted between-group difference inTNF-α, ACR20/50/70 responses, European League Against Rheumatism (EULAR) responses, DAS28-CRP <2.6 and ≦3.2, and adverse events. Continuous end-points were assessed with regression using day 5 as the response variable, and treatment and baseline measurement as covariates (ANCOVA). No adjustments for multiple analyses were made because of the highly correlated variables. Statistical tests were twosided (α ¼0.05) using Stat12/StatXact9, and performed by an offsite statistician who received the locked database from the blinded investigators, and the allocation key from the offsite central office.
# [4] = test system: TNF-α; experiment: Example 1: serum TNF-α, high sensitivity bead-based fluorescence immunoassay; type: in vivo, human; conditions: by day 5
# Experimental: as §1
# TNF-α was measured using a high sensitivity bead-based fluorescence immunoassay (Luminex Inc., Austin, Tex. USA) with multiplex technology according to the manufacturers' instructions. […] Samples were assayed together within the same microplate on the same day. The assay sensitivity for TNF-α was 0.5 pg/mL. Due to its skewed distribution, the statistical analysis gives both the log and relative change (%) of TNF-α from baseline.
# [5] = test system: interleukin-1β; experiment: Example 2: serum cytokine, multiplex high-sensitivity assay, interleukin-1β; type: in vivo, human; conditions: high gonadotropin patients
# Experimental: The protocol-specified primary and secondary intention-to-treat endpoints of the original AGRA trial were analyzed in these post hoc analyses. The primary endpoint was the baseline-adjusted between-group difference in DAS28-CRP (Wells et al., supra) by day 5b. Secondary endpoints included the baseline-adjusted between-group difference in cytokines, proportions of patients achieving at least a 20%, 50%, and 70% improvement on the ACR scale (Felson D T, et al., Arthritis Rheum 1995; 38:727-35), categorical DAS28-CRP (European League Against […] [EULAR]) responses (Wells et al., supra; van Gestel A M, et al., Arthritis Rheum 1996; 39:34-40), DAS28-CRP≦3.2 (Wells et al., supra), DAS28-CRP<2.6 (Wells et al., supra), and the incidence of adverse events. Protocol-specified DAS28 outcomes were preferentially CRP-based rather than erythrocyte sedimentation rate (ESR)-based, as CRP usually changes before ESR. […] Multiplex technology (Luminex Inc., Austin, Tex.) measured these serum cytokines using high-sensitivity assays (sensitivities <0.5 pg/mL, allowing the detection of very low concentrations of cytokines) and identical lots of critical reagent of negligible cross-reactivity <2%, according to manufacturers' instructions (Bio-Rad, Hercules, Calif.). […] To enable intention-to-treat analyses with all patients N=53, non-detectable values were set at the lower limit of detection for cytokines, as is common for CRP values.
# The original power calculation is previously reported (Kass A S, et al., Scand J Rheumatol Epub ahead of print 1 Nov. 2013). Baseline-adjusted between-group differences for all continuous endpoints were assessed with the use of analysis-of-covariance using outcome measurements at predefined time points as response variables, and treatment and baseline measurements as covariates. Dichotomous endpoints were compared with the Pearson chi-square test or Suissa-Shuster exact unconditional test, depending on expected-value distribution (Lydersen S, et al., Stat Med 2009; 28:1159-75). No adjustments for multiple analyses were made, owing to highly correlated endpoints. Due to skewed distributions, between-group changes of natural log-transformed cytokine levels from baseline were compared.
structure (smiles),measurement,setting,value
CC(=O)N[C@H](Cc1ccc2ccccc2c1)C(=O)N[C@H](Cc1ccc(Cl)cc1)C(=O)N[C@H](Cc1cccnc1)C(=O)N[C@@H](CO)C(=O)N[C@@H](Cc1ccc(O)cc1)C(=O)N[C@H](CCCNC(N)=O)C(=O)N[C@@H](CC(C)C)C(=O)N[C@@H](CCCNC(=N)N)C(=O)N1CCC[C@H]1C(=O)N[C@H](C)C(N)=O [cetrorelix] (Ac-[d2Nal][dPhe(4-Cl)][d3Pal]SY[dCit]LRP[dA]-NH2),Cortisol change compared with placebo (words),[1],significantly decreased
same,gonadotropins change compared to placebo,[1],significantly reduced
same,oestradiol change compared to placebo,[1],significantly reduced
same,testosterone change compared to placebo,[1],significantly reduced
same,"gonadotropin levels, onset",[1]; by day 2,decreased
same,Cortisol between-group difference,"[1]; by day 5, 95% CI 10.5 to 95.8, P=0.016",53.1 nmol/L
same,Cortisol change compared with placebo (words),[1]; listed as Cetrorelix,significantly reduced
same,Adverse effects: Headache,[2]; N = 48,2 (4.2) n (percent)
same,Adverse effects: Hot flushes,[2]; N = 48,2 (4.2) n (percent)
same,Adverse effects: Injection site discomfort,[2]; N = 48,3 (6.3) n (percent)
same,Adverse effects: Menstrual spotting,[2]; N = 48,2 (4.2) n (percent)
same,Adverse effects: Nasopharyngitis,[2]; N = 48,1 (2.1) n (percent)
same,Adverse effects: Nausea,[2]; N = 48,0 n (percent)
same,Adverse effects: Toothache,[2]; N = 48,0 n (percent)
same,Adverse effects: Urinary tract infection,[2]; N = 48,1 (2.1) n (percent)
same,serious side-effects,[2]; all patients,no serious side-effects were observed
same,CRP levels after withdrawal of treatment,[3]; by day 15,remained lowered
same,CRP reduction compared to placebo,"[3]; day 5, p 0.060",Non-significant reductions
same,ESR reduction compared to placebo,"[3]; day 15, p 0.051",Non-significant reductions
same,TNF-α reduction (change from baseline),"[4]; all patients with detectable TNF-α, placebo −0.02",−0.58 log pg/mL
same,TNF-α between group difference vs placebo,"[4]; 95% CI 0.08-1.01, p 0.023",0.55 log pg/mL
same,TNF-α percentage change from baseline,[4]; placebo 11.1%,−28.2%
same,"IL-1β level, Final Day 15","[5]; N = 27, mean ± SD",−1.68 ± 1.4 log pg/mL
same,IL-1β Change from baseline by day 15,"[5]; N = 27, placebo +0.10",−0.20 log pg/mL
same,Interleukin-1β change compared with placebo,"[5]; by day 15, P=0.034",significantly decreased
same,IL-1β Baseline-Adjusted Between-Group Difference,"[5]; day 15, 95% CI (0.02, 0.59), P < 0.05",0.30‡ log pg/mL
